Experimental data as given in patent publication US20060014728A1, “Hormone replacement therapy” (priority 1996, published 2006).
Values joined by “and” are separate entries in the source; they are usually repeats but may differ in a detail not shown here. Identical values can stand only once.

Legend:
[1] = tested on: endometrium; assay: Antiproliferative action of antiprogestins on the endometrium in estrogen-replaced, ovariectomized cynomolgus monkeys (Example 2); assay type: in vivo; conditions: biopsy day 30; 1 or 3 mg/kg im daily days 1-30; estradiol capsule sc
[2] = tested on: endometrial tissues; assay: Histologic evaluation of primate endometrial tissues on days 53 and 70 (Example 1); assay type: in vivo, cynomolgus monkeys; conditions: for Endometrial Score: score 0-atrophic to 5-secretory; for Thickness (mm): mean ± SD; for thicknesses of endometrial tissues: day 70, Groups III-VI (2.0 and 20.0 mg/kg together)
From the text: Additional data were collected by measurements of estradiol, progesterone and cortisol, as well as each antiprogestin in serum drawn on alternate days (1 to 81). Also, endometrial response was examined histologically in biopsy specimens collected on days 53 and 70, both to measure thickness of endometrial tissue (i.e., anti-proliferative response) and to assess the endometrial tissue qualitatively (atrophic, proliferative, or secretory, etc.).
(§1) The monkeys were randomly distributed into six treatment group preparations (n=5 each). Group I (control) was treated with the vehicle only. One empty silastic implant was placed sc surgically from study day 1 to 81; this controlled for estradiol treatment. Another empty silastic implant was inserted sc from days 28 to 35 and from days 67 to 74 and controlled for progesterone treatment. One ml of the antiprogestin vehicle was administered im on alternate days (39 to 67). Group II received continuous estradiol progesterone at two intervals but no antiprogestins. This experimental design allowed two menstrual challenges (A and B). As described below (Groups III-VI), menstrual challenge A was without antiprogestin exposure; whereas B was with antiprogestin treatment. Group III monkeys received the sequential estradiol and progesterone regimens as in Group II but also RU 486 at 2.0 mg/kg on alternate days for four weeks (days 39 to 67). For Group IV, the same treatment occurred, except that the RU 486 dose was elevated by ten-fold (20.0 mg/kg). Similarly, primates in Groups V and VI were injected with onapristone at 2.0 and 20.0 mg/kg, respectively.
(§2) In all treatment groups, observations for menstrual bleeding were made daily by visual inspection of the vaginal labia. Femoral blood collections (4.0 ml) were taken under ketamine-induced anesthesia (10 mg/kg) on alternate days and endometrial biopsies (by hysterotomy) were obtained on days 53 and 70. Endometrial biopsies were placed in formalin […] and processed for histologic evaluation by a clinical pathologist. Thickness of the endometrial tissues was measured with an ocular micrometer to determine the depth of the endometrium at its point of maximal thickness from the myometrial unction to the epithelial layer at the lumenal surface. Endometrial status was evaluated qualitatively and classified according to the following score: atrophic:O; early proliferative: 1; late proliferative:2; interval:3; early secretory:4; and late secretory:5.

[3] = tested on: ovariectomized cynomolgus monkeys; assay: Withdrawal menses after sequential estradiol and progesterone therapy without versus with antiprogestin treatment (menstrual challenges A and B); assay type: in vivo
From the text: 30 ovariecomized cynomolgus monkeys were studied intensively over 12 weeks. Primates in Group I (N=5 each) received only the vehicles used for hormone delivery in Groups II-VI. Monkeys in Group II received estradiol at physiologic levels throughout (days 1 to 81) via a sc silastic implant, as well as two separate courses of progesterone at physiologic levels via a sc silastic implant (days 28 to 35 and 67 to 74). Groups III-VI received the same sequential regimen of estradiol and progesterone as Group II, but in addition were given an antiprogestin im on alternate days 39 to 67: Group III, mifepristone (RU 486) 2.0 mg/kg; Group IV, mifepristone 20.0 mg/kg; Group V, onapristone (ZK 299) 2.0 mg/kg; and Group VI, onapristone 20.0 mg/kg. The two menstrual challenge tests (A and B) were defined as the six days immediately after withdrawal of progesterone treatment (A on days 36 to 41 and B on days 75 to 80).
The protocol thus provided two periods of estrogen-only HRT treatment, one without antiprogestin followed by another with antiprogestin. Each of these two periods was followed by short-term progesterone treatment which provided a measurement of the effects on bleeding of the antiprogestin during the estrogen HRT treatment.
as §1, §2

[4] = Day 53, antiprogestin 2.0 mg/kg
[5] = Day 53, antiprogestin 20.0 mg/kg
[6] = Day 53, estradiol + progesterone + antiprogestin 2.0 mg/kg im alternate days 39-67
[7] = Day 53, estradiol + progesterone + antiprogestin 20.0 mg/kg im alternate days 39-67
[8] = Day 70, antiprogestin 2.0 mg/kg
[9] = Day 70, antiprogestin 20.0 mg/kg
[10] = Day 70, estradiol + progesterone + antiprogestin 2.0 mg/kg im alternate days 39-67
[11] = Day 70, estradiol + progesterone + antiprogestin 20.0 mg/kg im alternate days 39-67
[12] = 20.0 mg/kg im on alternate days 39-67, with estradiol + progesterone
[13] = Menstrual Challenge A, withdrawal interval days 36-41, antiprogestins: none (baseline before antiprogestin), groups later given 2 mg/kg
[14] = Menstrual Challenge A, withdrawal interval days 36-41, antiprogestins: none (baseline before antiprogestin), groups later given 20 mg/kg
[15] = Menstrual Challenge B, withdrawal interval days 75-80, estradiol + progesterone + antiprogestin 2 mg/kg im on alternate days 39-67
[16] = Menstrual Challenge B, withdrawal interval days 75-80, estradiol + progesterone + antiprogestin 20 mg/kg im on alternate days 39-67

| SMILES | classification of endometrial specimens (developmental stage) [1] | Endometrial Score [2, 4] | Endometrial Score [2, 5] | Thickness (mm) [2, 6] | Thickness (mm) [2, 7] | Endometrial Score [2, 8] | Endometrial Score [2, 9] | Thickness (mm) [2, 10] | Thickness (mm) [2, 11] | thicknesses of endometrial tissues [2] | bleeding outcome during menstrual challenge B ([3]; 2.0 mg/kg im on alternate days 39-67, with estradiol + progesterone) | bleeding outcome during menstrual challenge B [3, 12] | Incidence of Bleeding, Days [3, 13] | Incidence of Bleeding, Days [3, 14] | Incidence of Bleeding, Days [3, 15] | Incidence of Bleeding, Days [3, 16] | histological evaluation of endometrium ([2]; Group V, 2.0 mg/kg) | Incidence of Bleeding, Days ([3]; Menstrual Challenge B, withdrawal interval days 75-80, estradiol + progesterone + antiprogestin 2 mg/kg im on alternate days 39-67, listed as ONA) |
| --- | --- | --- | --- | --- | --- | --- | --- | --- | --- | --- | --- | --- | --- | --- | --- | --- | --- | --- |
| C[C@]12C[C@@H]3c4ccc(-c5ccc(C#N)cc5)cc4C[C@]45CCC(=O)C=C4CC[C@@H]([C@H]35)[C@@H]1CC[C@@]2(O)/C=C/CO [ZK136798] | interval |  |  |  |  |  |  |  |  |  |  |  |  |  |  |  |  |  |
| CC#C[C@]1(O)CC[C@H]2[C@@H]3CCC4=CC(=O)CCC4=C3[C@@H](c3ccc(N(C)C)cc3)C[C@@]21C [mifepristone, 11β-(4-dimethylaminophenyl)-17β-hydroxy-1-propinyl-4,9estradien-3-one] | proliferative | 3.6 | 3.8 | 2.5 ± 0.2 mm | 2.2 ± 0.2 mm | 2.4 | 2.8 | 1.8 ± 0.2 mm | 1.3 ± 0.1 mm | approximately 1.5 mm | complete amenorrhea | complete amenorrhea | 13/30 | 12/30 | 0/30 | 0/30 |  |  |
| CN(C)c1ccc([C@H]2C[C@]3(C)[C@@H](CC[C@]3(O)CCCO)[C@@H]3CCC4=CC(=O)CCC4=C32)cc1 [onapristone, 1β-(4-dimethylaminophenyl)-17-hydroxy-17β-(3-hydroxypropyl)-13-methyl-4,9-gonadien-3-one] | interval | 3.8 | 3.6 | 2.6 ± 0.2 mm | 2.2 ± 0.1 mm | 4.0 | 3.0 | 1.6 mm and 1.6 ± 0.1 mm | 1.7 ± 0.1 mm | approximately 1.5 mm |  | complete amenorrhea | 9/30 | 9/30 | three | 0/30 | well-developed secretory glands | 3/30 |
